Test results taken from patent US20090221656A1, “Drug Combinations” (priority 2006, published 2009).

How the values were obtained:
[1] = NA and DA tissue levels in heart and brain after administration of Compound 1; type: in vivo, mice and rats; details: mouse and rat, in vivo; mice and rats; after administration
Source text: (§1) Compound 1 ((R)-5-(2-aminoethyl)-1-(6,8-difluorochroman-3-yl)-1,3-dihydroimidazole-2-thione hydrochloride) is a new chemical entity that integrates a series of potent inhibitors of dopamine β-hydroxylase (DBH) that were designed and synthesised incorporating modifications to the core structure of nepicastat. The aim was to provide new DBH inhibitors exerting minimal effects on dopamine (DA) and noradrenaline (NA) levels in the brain. Compound 1 is in a fact a potent and peripherally-selective DBH inhibitor. […] Compound 1 is thus presented as a candidate for clinical evaluation for the treatment of chronic heart failure and hypertension. Compound 1, together with a series of related compounds, is described in WO 2004/033447.

[2] = system: dopamine β-hydroxylase (DBH); test: as above; type: in vivo, mice and rats
Source text: as §1

[3] = mice and rats, at Tmax (9 h after administration)

Cl.NCCc1c[nH]c(=S)n1[C@H]1COc2c(F)cc(F)cc2C1 [Compound 1, (R)-5-(2-aminoethyl)-1-(6,8-difluorochroman-3-yl)-1,3-dihydroimidazole-2-thione hydrochloride]
Tmax [1]: 9 h | DA tissue levels in brain ([2]; brain): failed to affect | NA tissue levels in brain ([2]; brain): failed to affect | NA levels in the left atrium [2, 3]: reduced NA levels in a dose-dependent manner | NA levels in the left ventricle [2, 3]: reduced NA levels in a dose-dependent manner | dose at which the maximal inhibitory effect on NA levels was attained ([2]; mice and rats, left atrium and left ventricle, 9 h after administration): 100 mg/kg
